Measured values published in patent US20230111132A1, “STABILIZATION OF MHC COMPLEXES” (The Regents of the University of California, priority 2019, published 2023).

Assays:
HLA-B*57:01 [1] = biological target: T1, HLA-B*57:01 (Homo sapiens, UniProt P01889, D201E/D98Y/E176V/E187L/E204Q/E69M/E70A/G107R/I90N/K202T/L105A/L119I/N104I/N87E/Q89R/Q94S/R106L/R155S/R180L/R86G/S101N/S121V/S35A/S48A/T118I/V36M/Y140S/Y91M); assay: MHC refolding ELISA (capture ELISA of refolded MHC-peptide complex); format: biochemical; set-up: Denatured heavy chain (final concentration 1 μM)
Protocol: FIG. 13. Primary assay: refolding ELISA.
Refolding reactions were set up in 96-well plates on ice by the successive addition of the following: • 1. Refolding Buffer (400 mM Arg-HCl, 100 mM Tris 8.0, 5 mM glutathione (GSH), 0.5 mM glutathione disulfide (GSSG), 1× cOmplete protease inhibitor cocktail); • 2. Beta-2-microglobulin (final concentration 2 μM). • 3. Peptide (final concentration 40 μM). • 4. Denatured heavy chain (final concentration 1 μM).
[…] Meanwhile, 96-well ELISA plate (Coming 3361) was treated with W6/32 (5 μg/mL) at 4° C. overnight. The plate was washed with PBS (2×200 μL), then blocked with 375 μL 3% BSA/PBS at 23° C. for 1 h. After washing the plate with PBST (3×200 μL), 90 μL 1% BSA/PBS was added to each well.
Detection of refolding was performed as follows: • 1. Add 10 μL of the refolding mixture to each well of the ELISA plate. • 2. Incubate the plate with shaking at 23° C. for 1 h. • 3. Wash plate with 1% BSA/PBS (3×200 μL). • 4. Add 50 μL BBM.1-HRP (1 μg/mL in 1% BSA/PBS) and incubate the plate with shaking at 23° C. for 1 h. • 5. Wash plate with PBST (3×200 μL). • 6. Wash plate with PBS (1×100 μL). • 7. Add 50 μL TMB Ultra and incubate the plate with shaking for 5 min. • 8. Stop the reaction by addition of 20 μL 2.0 M sulfuric acid. • Read absorbance at 450 nm within 10 min. […]

HLA-B*57:01 [2] = biological target: T1, HLA-B*57:01; details: PepV HSITYLLPV; known; cited from earlier work

| Compound | MHC-peptide complex formation after 72 h (HLA-B*57:01 [1]; 40 μM G12V 7-16, 1% DMSO, 10° C., 72 hours) | stabilization of PepV in HLA-B*57:01 (HLA-B*57:01 [2]) | stabilization of the presentation of mutant K-Ras peptides by HLA-B*57:01 (HLA-B*57:01 [1]; peptide panel VVVGAVGVGG/A/V/I/K/W and HSITYLLPV (FIG. 8, FIG. 9)) |
| --- | --- | --- | --- |
| CNS(=O)(=O)c1cc(Nc2nccc(N(C)c3ccc4nn(C)c(C)c4c3)n2)ccc1C [09-045B] | may be less susceptible to this instability | – | – |
| Nc1nc(NC2CC2)c2ncn([C@H]3C=C[C@@H](CO)C3)c2n1 [abacavir] | – | stabilized | induced stabilization |
